# Results from ChEMBL document CHEMBL5244273, “Tuberculosis: An Overview of the Immunogenic Response, Disease Progression, and Medicinal Chemistry Efforts in the Last Decade toward the Development of Potential Drugs for Extensively Drug-Resistant Tuberculosis Strains” (J Med Chem, 2021).
# Columns and labels:
# [1] = test system: Mycobacterium tuberculosis; test: Antimycobacterial activity against Mycobacterium tuberculosis H37Rv assessed as inhibition of bacterial growth by resazurin dye based fluorescence analysis; type: functional
# [2] = test system: Mycobacterium tuberculosis; test: Antimycobacterial activity against Mycobacterium tuberculosis H37Rv infected in human THP-1 cells assessed as inhibition of bacterial growth; type: functional, organism-based
# [3] = test system: Mycobacterium tuberculosis; test: Potentiation of ethionamide induced antibacterial activity against Mycobacterium tuberculosis H37Rv expressing GFP incubated for 5 days by fluorescence based analysis; type: functional, organism-based; conditions: 120 h
SMILES,MIC [1],other results
O=S(=O)(NCCO)c1ccc(-c2nnn(Cc3ccc(F)cn3)n2)cc1,0.1 µM,–
COc1ccc(Cn2cc(-c3ccc(S(=O)(=O)NCCO)cc3)nn2)cc1,0.1 µM,–
NC(=O)CNS(=O)(=O)c1ccc(-c2cn(Cc3ccc(F)cc3)nn2)cc1,0.1 µM,–
Cc1cc(Cn2nnc(-c3ccc(S(=O)(=O)NCC(N)=O)cc3)n2)ccn1,0.1 µM,–
COc1cc(-c2nnn(Cc3ccc(C#N)cn3)n2)ccc1S(=O)(=O)NCCO,0.1 µM,–
NC(=O)CNS(=O)(=O)c1ccc(-c2cn(CC3CCC(F)(F)CC3)nn2)cc1,0.1 µM,–
O=S(=O)(NCCO)c1ccc(-c2nnn(Cc3ccc(F)cn3)n2)cc1F,0.1 µM,–
CC(c1ccc(F)cc1)n1nnc(-c2ccc(S(=O)(=O)NCCO)cc2)n1 (stereo not given),0.1 µM,–
O=S(=O)(NCCO)c1ccc(-c2cn(Cc3ccc(F)cn3)nn2)cc1,0.1 µM,–
N#CCNS(=O)(=O)c1ccc(-c2nnn(Cc3ccncn3)n2)cc1,0.1 µM,–
O=S(=O)(NCCO)c1ccc(-c2nnn(CC3CCCCO3)n2)cc1F (stereo not given),0.1 µM,–
O=S(=O)(NCCO)c1ccc(-c2nnn(CC3CCCCO3)n2)c(F)c1F (stereo not given),0.1 µM,–
NC(=O)CNS(=O)(=O)c1ccc(-c2nnn(Cc3ccc(Cl)cn3)n2)cc1,0.1 µM,–
NC(=O)CNS(=O)(=O)c1ccc(-c2nnn(CC3CCC(F)(F)CC3)n2)cc1,0.1 µM,–
C[C@@H](O)CNS(=O)(=O)c1ccc(-c2cn(Cc3ccc(F)cc3)nn2)cc1,0.1 µM,–
COc1cnc(Cn2nnc(-c3ccc(S(=O)(=O)NCC#N)cc3)n2)cn1,0.1 µM,–
C[C@H](c1ccc(F)cn1)n1nnc(-c2ccc(S(=O)(=O)NCCO)cc2)n1,0.1 µM,–
O=S(=O)(NCCO)c1c(F)cc(-c2nnn(Cc3ccc(F)cn3)n2)cc1F,0.1 µM,–
O=S(=O)(NCCO)c1ccc(-c2nnn(CC3CCOCC3)n2)cc1F,0.1 µM,–
Cc1ccc(Cn2nnc(-c3ccc(S(=O)(=O)NCCO)cc3)n2)cn1,0.1 µM,–
O=S(=O)(NCCO)c1ccc(-c2nnn(CC3CCOCC3)n2)cc1,0.1 µM,–
COc1cc(-c2nnn(Cc3ccncc3)n2)ccc1S(=O)(=O)NCCO,0.1 µM,–
N#CCNS(=O)(=O)c1ccc(-c2nnn(Cc3ccncc3)n2)cc1,0.1 µM,–

SMILES,MIC [1],other results
COc1ccc(Cn2nnc(-c3ccc(S(=O)(=O)NC[C@@H](C)O)cc3)n2)cc1,0.1 µM,–
CC(c1ccc(F)cc1)n1cc(-c2ccc(S(=O)(=O)NCCO)cc2)nn1 (stereo not given),0.1 µM,–
COc1cc(-c2nnn(Cc3ccncc3)n2)ccc1S(=O)(=O)NCC(N)=O,0.1 µM,–
COc1ccc(Cn2nnc(-c3ccc(S(=O)(=O)NC[C@@H](C)O)cc3)n2)nc1,0.1 µM,–
Cc1ccc(Cn2nnc(-c3ccc(S(=O)(=O)NCC(N)=O)cc3)n2)nc1,0.1 µM,–
O=S(=O)(NCCO)c1ccc(-c2cn(Cc3ccc(F)cc3)nn2)cc1,0.1 µM,–
O=S(=O)(NCCO)c1ccc(-c2nnn(Cc3cccnc3)n2)cc1,0.1 µM,–
COc1ccc(Cn2nnc(-c3ccc(S(=O)(=O)NCC#N)cc3)n2)cn1,0.1 µM,–
O=S(=O)(NCCO)c1ccc(-c2nnn(Cc3ccc(F)cn3)n2)cc1Cl,0.1 µM,–
Cc1cc(S(=O)(=O)NCCO)c(F)cc1-c1nnn(Cc2ccc(F)cn2)n1,0.1 µM,–
O=C(CCC(F)(F)F)N1CCC2(CC1)CC(OCC(F)(F)F)=NO2,–,IC50 [2]: 0.05 µM; EC50 [3]: < 0.038 µM
O=S(=O)(NCCO)c1ccc(-c2nnn(Cc3ccc(F)cc3)n2)cc1F,0.1 µM,–
CCCOC1=NOC2(CCN(C(=O)CCC(F)(F)F)CC2)C1,–,IC50 [2]: 0.05 µM; EC50 [3]: < 0.038 µM
NC(=O)CNS(=O)(=O)c1ccc(-c2nnn(Cc3ccncc3)n2)cc1,0.1 µM,–
O=S(=O)(NCCO)c1ccc(-c2nnn(CC3CCCCC3)n2)cc1,0.1 µM,–
O=S(=O)(NCCO)c1ccc(-c2nnn(Cc3ccc(OC(F)(F)F)cc3)n2)cc1,0.1 µM,–
N#CCNS(=O)(=O)c1ccc(-c2cn(Cc3ccc(F)cn3)nn2)cc1,0.1 µM,–
NC(=O)CNS(=O)(=O)c1ccc(-c2nnn(Cc3ccc(F)cn3)n2)cc1,0.1 µM,–
COC(=O)CNS(=O)(=O)c1ccc(-c2nnn(Cc3ccncc3)n2)cc1,0.1 µM,–
Cc1cc(S(=O)(=O)NCCO)ccc1-c1nnn(CC2CCCCO2)n1 (stereo not given),0.1 µM,–
COc1cc(-c2nnn(Cc3ccc(F)cc3)n2)ccc1S(=O)(=O)NCCO,0.1 µM,–
O=S(=O)(NCCO)c1ccc(-c2nnn(Cc3ccncc3)n2)cc1,0.1 µM,–
O=S(=O)(NCCO)c1c(F)cc(-c2nnn(CC3CCCCO3)n2)cc1F (stereo not given),0.1 µM,–

SMILES,MIC [1],other results
COc1cc(-c2nnn(Cc3ccc(C#N)cc3)n2)ccc1S(=O)(=O)NCC(N)=O,0.1 µM,–
CNS(=O)(=O)c1ccc(-c2nnn(Cc3ccncc3)n2)cc1OC,0.1 µM,–
O=S(=O)(NCCO)c1ccc(-c2nnn(Cc3ccc(F)cn3)n2)c(F)c1F,0.1 µM,–
O=S(=O)(NCCO)c1ccc(-c2nnn(Cc3ccnnc3)n2)cc1,0.1 µM,–
COC(=O)CNS(=O)(=O)c1ccc(-c2nnn(Cc3ccc(F)cc3)n2)cc1,0.1 µM,–
O=S(=O)(NCCO)c1ccc(-c2nnn(Cc3cccnn3)n2)cc1,0.1 µM,–
Cc1ccc(Cn2nnc(-c3ccc(S(=O)(=O)NC[C@@H](C)O)cc3)n2)nc1,0.1 µM,–
N#CCNS(=O)(=O)c1ccc(-c2nnn(CC3CCCCO3)n2)cc1 (stereo not given),0.1 µM,–
NC(=O)CNS(=O)(=O)c1ccc(-c2nnn(Cc3ccc(F)cc3)n2)cc1Cl,0.1 µM,–
NC(=O)CNS(=O)(=O)c1ccc(-c2nnn(Cc3ccc(F)cc3)n2)cc1,0.1 µM,–
CCOc1ccc(Cn2nnc(-c3ccc(S(=O)(=O)NCCO)cc3)n2)cc1,0.1 µM,–
O=S(=O)(NCCO)c1ccc(-c2nnn(Cc3ccc(C(F)(F)F)cc3)n2)cc1,0.1 µM,–
N#CCNS(=O)(=O)c1ccc(-c2nnn(Cc3cnccn3)n2)cc1,0.1 µM,–
N#CCNS(=O)(=O)c1ccc(-c2cn(Cc3ccncc3)nn2)cc1,0.1 µM,–
CC(c1ccc(F)cc1)n1nnc(-c2ccc(S(=O)(=O)NCC(N)=O)cc2)n1 (stereo not given),0.1 µM,–
O=S(=O)(NCCO)c1ccc(-c2cn(Cc3ccncc3)nn2)cc1,0.1 µM,–
COc1cc(-c2nnn(Cc3ccc(F)cc3)n2)ccc1S(=O)(=O)NCC(N)=O,0.1 µM,–
O=S(=O)(NCCO)c1ccc(-c2nnn(Cc3ccc(F)cn3)n2)c(F)c1,0.1 µM,–
COc1cc(-c2nnn(CC3CCC(F)(F)CC3)n2)ccc1S(=O)(=O)NCC(N)=O,0.1 µM,–
NC(=O)CNS(=O)(=O)c1ccc(-c2nnn(Cc3ccc(F)c(F)c3)n2)cc1,0.1 µM,–
Cc1cc(S(=O)(=O)NCCO)ccc1-c1nnn(Cc2ccc(F)cn2)n1,0.1 µM,–
Cc1ccc(Cn2nnc(-c3ccc(S(=O)(=O)NCCO)cc3)n2)nc1,0.1 µM,–
O=S(=O)(NCCO)c1ccc(-c2nnn(CC3CCCOC3)n2)cc1 (stereo not given),0.1 µM,–

SMILES,MIC [1],other results
COc1ccc(Cn2nnc(-c3ccc(S(=O)(=O)NCC(N)=O)cc3)n2)cc1,0.1 µM,–
Cc1cc(Cn2nnc(-c3ccc(S(=O)(=O)NCCO)cc3)n2)ccn1,0.1 µM,–
Cc1cc(-c2nnn(CC3CCCCO3)n2)ccc1S(=O)(=O)NCCO (stereo not given),0.1 µM,–
Cc1ccc(Cn2nnc(-c3ccc(S(=O)(=O)NCC(N)=O)cc3)n2)cc1,0.1 µM,–
COc1ccc(Cn2nnc(-c3ccc(S(=O)(=O)NCCO)cc3)n2)nc1,0.1 µM,–
Cc1ccc(Cn2cc(-c3ccc(S(=O)(=O)NCCO)cc3)nn2)nc1,0.1 µM,–
COc1ccc(Cn2nnc(-c3ccc(S(=O)(=O)NCCO)c(OC)c3)n2)nc1,0.1 µM,–
N#CNS(=O)(=O)c1ccc(-c2nnn(Cc3ccc(F)cn3)n2)cc1,0.1 µM,–
O=S(=O)(NCCO)c1ccc(-c2nnn(CC3CCCCO3)n2)c(F)c1 (stereo not given),0.1 µM,–
CNS(=O)(=O)c1ccc(-c2nnn(Cc3ccc(C#N)cc3)n2)cc1,0.1 µM,–
COc1cc(-c2nnn(Cc3ccncc3)n2)ccc1S(=O)(=O)NCC#N,0.1 µM,–
N#CCNS(=O)(=O)c1ccc(-c2nnn(Cc3ccc(F)cc3)n2)cc1,0.1 µM,–
COc1cc(-c2nnn(C(C)c3ccc(F)cc3)n2)ccc1S(=O)(=O)NCC(N)=O (stereo not given),0.1 µM,–
N#Cc1ccc(Cn2cc(-c3ccc(S(=O)(=O)NCCO)cc3)nn2)cc1,0.1 µM,–
N#CCNS(=O)(=O)c1ccc(-c2nnn(CC3CCOCC3)n2)cc1,0.1 µM,–
O=S(=O)(NCCO)c1ccc(-c2nnn(Cc3ccc(F)cn3)n2)c(Cl)c1,0.1 µM,–
Cc1cnc(Cn2nnc(-c3ccc(S(=O)(=O)NCC#N)cc3)n2)cn1,0.1 µM,–
NC(=O)CNS(=O)(=O)c1ccc(-c2nnn(CC3CCCCO3)n2)cc1 (stereo not given),0.1 µM,–
COc1ccc(Cn2nnc(-c3ccc(S(=O)(=O)NCCO)cc3)n2)cc1F,0.1 µM,–
COc1cc(-c2nnn(Cc3ccc(F)cn3)n2)ccc1S(=O)(=O)NCCO,0.1 µM,–
CC(C)COC1=NOC2(CCN(C(=O)CCC(F)(F)F)CC2)C1,–,IC50 [2]: 0.05 µM; EC50 [3]: < 0.038 µM
O=S(=O)(NCCO)c1ccc(-c2nnn(CC3CCCCC3)n2)cc1F,0.1 µM,–
Cc1cc(-c2nnn(Cc3ccc(F)cn3)n2)ccc1S(=O)(=O)NCCO,0.1 µM,–
